Like-named read-outs stand apart in the source and are kept apart here.
Experiments:
[1] = system: bovine serum albumin (BSA); assay: Fluorescamine assay of free primary amino groups of BSA incubated with D-ribose; type: biochemical; settings: for Unreacted amino group: free primary amino group on BSA after 5 days at 37° C., agent at 16.8 times IC50, 64% without agent
[2] = system: bovine serum albumin (BSA); assay: SDS-PAGE assessment of BSA-BSA protein cross-links; type: biochemical; settings: mixtures further incubated for 4 weeks; note: key: ++: strongly suppressed; +: suppressed; −: no suppression; *: moderate acceleration of the cross-linking
Method: Additionally, protein cross-links were semi-quantitatively assessed by SDS PAGE gel chromatography.
Protein-protein cross-links were characterized by SDS-PAGE. The incubation mixtures used for determination of the amino groups were further incubated for 4 weeks. An aliquot of the solution was applied to Pharmacia SDS FAST gel and the proteins were stained with Coomassie blue.

[3] = system: bovine serum albumin (BSA)
lysozyme = assay: ESI-MS of lysozyme glycoforms after incubation with D-ribose;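 note: lysozyme incubated with D-ribose, with or without anti-glycation agents, then separated by reversed-phase HPLC and analysed by electrospray mass spectrometry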
Method: The effect of anti-glycation agents on the accumulation of glycated forms (glycoforms) of protein was evaluated by using electrospray mass spectrometry (ESI-MS). As the molecular mass of BSA was too large to monitor the small mass changes of its glycoforms, lysozyme was incubated with D-ribose and anti-glycants. Lysozyme and its glycoforms were isolated by RP-HPLC and analyzed by mass spectrometry.
Samples of lysozyme (0.756 mM; 4.54 mM of Lys residues) and D-ribose (50 mM) were incubated in the presence and absence of the selected anti-glycation agents at 37° C. for 5 days and subjected to electrospray mass spectrometry (ESI-MS) in order to characterize the protein intermediates as well as carboxymethylated lysozyme. Prior to MS measurements, the proteins were isolated by reversed phase-HPLC and were semi-dried by freeze drying.

[4] = system: bovine serum albumin (BSA); assay: Maillard fluorescence-based assay of AGEs formation, IC50 determination (BSA + D-ribose); settings: inhibition of Maillard fluorescence development; 0.075 mM BSA, 50 mM D-ribose, 37° C., 5 days
[5] = lysozyme + 2D-ribose − 2H2O (14,569 Da), 37° C., 5 days
[6] = lysozyme + 2D-ribose − 3H2O (14,551 Da), 37° C., 5 days
[7] = lysozyme + 2D-ribose − 5H2O (14,533 Da), 37° C., 5 days
[8] = lysozyme + 2D-ribose − 6H2O (14,515 Da), 37° C., 5 days
[9] = lysozyme + D-ribose − 2H2O (14,419 Da), 37° C., 5 days
[10] = lysozyme + D-ribose − 3H2O (14,401 Da), 37° C., 5 days
[11] = lysozyme + D-ribose − H2O (14,437 Da), 37° C., 5 days
[12] = lysozyme + D-ribose − H2O with one carboxymethylated Lys residue (14,496 Da), 37° C., 5 days
[13] = lysozyme with one carboxymethylated Lys residue (14,364 Da), 37° C., 5 days
[14] = unmodified lysozyme (14,305 Da), 37° C., 5 days
[15] = FIG. 2, in words, 37° C., 5 days

SMILES	Unreacted amino group [1] [%]	Suppression of BSA-BSA cross-links [2]	IC50 [3] [µM]	Peak area as % of total area of all glycoforms, 14,569 (lysozyme; [5]) [%]	Peak area as % of total area of all glycoforms, 14,551 (lysozyme; [6]) [%]	Peak area as % of total area of all glycoforms, 14,533 (lysozyme; [7]) [%]	Peak area as % of total area of all glycoforms, 14,515 (lysozyme; [8]) [%]	Peak area as % of total area of all glycoforms, 14,419 (lysozyme; [9]) [%]	Peak area as % of total area of all glycoforms, 14,401 (lysozyme; [10]) [%]	Peak area as % of total area of all glycoforms, 14,437 (lysozyme; [11]) [%]	Peak area as % of total area of all glycoforms, 14,496 (lysozyme; [12]) [%]	Peak area as % of total area of all glycoforms, 14,364 (lysozyme; [13]) [%]	Peak area as % of total area of all glycoforms, 14,305 (lysozyme; [14]) [%]	other results
O=S(=O)(O)c1ccc(O)c2ncccc12 [8-Hydroxyquinoline-5-sulfonic acid]	76	++	560	5.2	0.9	1.0	0.5	3.2	2.0	27.9	0.0	0.7	58.0	–
NC[C@@H](O)c1ccc(O)c(O)c1 [L-Norepinephrine]	70	+	–	1.2	0.0	0.0	0.0	2.4	2.3	12.0	0.9	5.3	75.9	–
CN1CCCN=C1/C=C/c1cccc(O)c1 [Oxantel]	55	+	600	3.1	2.0	1.7	1.1	5.6	3.7	17.4	1.7	5.4	57.7	–
NC[C@H](O)c1ccc(O)c(O)c1 [D-Norepinephrine]	67	+	66	1.0	0.0	0.0	0.0	1.9	1.9	12.1	0.7	5.0	77.3	–
CC(C)NC[C@H](O)c1ccc(O)c(O)c1 [L-Isoproterenol]	73	+	–	2.2	0.8	1.0	0.9	2.3	2.5	16.5	1.4	5.3	67.0	effect on protection of amino groups of BSA ([1]; in words): protect the amino group against glycation
CN(C)[C@@H]1C(O)=C(C(N)=O)C(=O)[C@@]2(O)C(O)=C3C(=O)c4c(O)ccc(Cl)c4[C@@H](O)[C@H]3C[C@@H]12 [Demeclocycline]	69	+	19	1.4	0.0	0.0	0.0	3.0	1.9	13.7	0.0	4.2	75.2	–
Oc1cccc2cccnc12 [8-Hydroxyquinoline]	55	+	95	–	–	–	–	–	–	–	–	–	–	Peak area as % of total area of all glycoforms, 14,305 (lysozyme): 67.8%; Peak area as % of total area of all glycoforms, 14,364 (lysozyme): 4.2%; Peak area as % of total area of all glycoforms, 14,401 (lysozyme): 5.8%; Peak area as % of total area of all glycoforms, 14,419 (lysozyme): 3.6%; Peak area as % of total area of all glycoforms, 14,437 (lysozyme): 9.0%; Peak area as % of total area of all glycoforms, 14,496 (lysozyme): 1.7%; Peak area as % of total area of all glycoforms, 14,515 (lysozyme): 1.7%; Peak area as % of total area of all glycoforms, 14,533 (lysozyme): 1.6%; Peak area as % of total area of all glycoforms, 14,551 (lysozyme): 1.5%; Peak area as % of total area of all glycoforms, 14,569 (lysozyme): 2.3%
CNC[C@H](O)c1ccc(O)c(O)c1 [L-Epinephrine]	69	++	18	1.7	0.0	0.0	0.0	2.0	0.8	15.3	1.0	4.8	74.5	amount of (AP-H2O) glycoform of lysozyme (lysozyme; [15]): reduced; amount of AP glycoform of lysozyme (lysozyme; [15]): reduced
CC(C)NC[C@@H](O)c1ccc(O)c(O)c1 [D-Isoproterenol]	68	+	–	1.4	0.2	0.5	0.0	1.8	0.8	13.7	0.6	4.7	76.2	–
O=c1c(O)cccc2cc(O)c(O)c(O)c12 [Purpurogallin]	31	–	–	3.6	1.2	0.9	0.0	4.1	0.0	22.2	0.0	0.0	67.9	IC50 [4]: 76 µM

Source: US20080139664A1, “ANTI-GLYCATION AGENTS FOR PREVENTING AGE-, DIABETES-, AND SMOKING-RELATED COMPLICATIONS” (NATIONAL RESEARCH COUNCIL OF CANADA, priority 2001, published 2008)
